Patent publication US7897582B2, “Oligonucleotide compositions and methods for the modulation of the expression of B7 protein” (Isis Pharmaceuticals, Inc., priority 2003, dated 2011)
Strand notation (5' to 3'): a small letter for the sugar, then the base; units joined by * are phosphorothioate-linked, units joined directly phosphodiester-linked; [ ] holds rarer units or linkages, { } end groups; capitals alone tell only the bases. e = 2'-O-(2-methoxyethyl) (MOE); [5mC] = 5-methylcytosine; d = 2'-deoxy (DNA)

Legend:
hB7-2 mRNA = assay: Ribonuclease protection assay of hB7-2 mRNA in transfected COS-7 cells; type: cell-based, human
Summary of the method: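 COS-7 cells transfected with hB7-2 were treated with antisense oligonucleotides at varied concentrations, mismatch controls included; RNA taken 18 h after treatment. 5 μg total RNA hybridised overnight at 42° C with 32P antisense probe (B7-2 positions 1044-1391) or beta-actin probe, RNase A/T1 digested, gel-resolved and quantified by phosphorimaging.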

human B7-2 = assay: Cell surface expression of B7-2 in transfected COS-7 cells by flow cytometry; type: cell-based; conditions: for % Surface Inhibition / % Surface Expression: COS-7 cells, B7-2 cell surface; for % Surface Expression: basal = 100%; for % B7-2 EXPRESSION: human B7 cell surface expression, Table 16
Method: (§1) A T-175 flask was seeded at 75% confluency with COS-7 cells (ATCC accession No. CRL 1651). The plasmid pcB7-1 was introduced into cells by standard calcium phosphate transfection. Following a 4 hour transfection, the cells were trypsinized and seeded in 12-well dishes at 80% confluency. The cells were allowed to adhere to the plastic for 1 hour and were then washed with phosphate-buffered saline (PBS). OptiMEM™ (GIBCO-BRL, Gaithersburg, Md.) medium was added along with 15 μg/mL of Lipofectin™ (GIBCO-BRL, Gaithersburg, Md.) and oligonucleotide at the indicated concentrations. After four additional hours, the cells were washed with phosphate buffered saline (PBS) and incubated with fresh oligonucleotide at the same concentration in DMEM (Dulbecco et al., Virol., 1959, 8, 396; Smith et al., Virol., 1960, 12, 185) with 10% fetal calf sera (FCS).
(§2) In order to monitor the effects of oligonucleotides on cell surface expression of B7-1, treated COS-7 cells were harvested by brief trypsinization 24-48 hours after oligonucleotide treatment. The cells were washed with PBS, then resuspended in 100 μL of staining buffer (PBS, 0.2% BSA, 0.1% azide) with 5 μL conjugated anti-B7-1-antibody (i.e., anti-hCD80-FITC, Ancell, Bayport, Minn.; FITC: fluorescein isothiocyanate). The cells were stained for 30 minutes at 4° C., washed with PBS, resuspended in 300 μL containing 0.5% paraformaldehyde. Cells were harvested and the fluorescence profiles were determined using a flow cytometer.
In an initial screen, the ability of hB7-2 oligonucleotides to inhibit B7-2 expression was evaluated by measuring the cell surface expression of B7-2 in transfected COS-7 cells by flow cytometry. The methods used were similar to those given in Example 2, with the exceptions that (1) COS-7 cells were transfected with the plasmids pbcB7-2 or BBG-58, a human ICAM-1 (CD54) expression vector (R&D Systems, Minneapolis, Minn.) introduced into cells by standard calcium phosphate transfection, (2) the oligonucleotides used were those described in Table 2, and (3) a conjugated anti-B7-2 antibody (i.e., anti-hCD86-FITC or anti-CD86-PE, PharMingen, San Diego, Calif.; PE: phycoerythrin) was used during flow cytometry.
(§3) B7 antisense oligonucleotides were tested for their effect on cell surface expression of both B7-1 and B7-2. Cell surface expression was measured as described in Example 1. Experiments were done for both human B7 and mouse B7.
The oligonucleotides were screened as described in Example 2 except that the concentration of oligonucleotide was varied as shown in Table 19.

human B7-1 = assay: Cell surface expression of B7-1 in pcB7-1-transfected COS-7 cells by flow cytometry; type: cell-based; conditions: for % B7-1 EXPRESSION: human B7 cell surface expression, Table 16; for % Surface Inhibition / % Surface Expression: COS-7 cells, B7-1 cell surface; for % Surface Expression: basal = 100%
Method: The ability of oligonucleotides to inhibit B7-1 expression was evaluated by measuring the cell surface expression of B7-1 in transfected COS-7 cells by flow cytometry.
as §1, §2, §3
The oligonucleotides were screened as described in Example 2 except that the concentration of oligonucleotide was varied as shown in Table 18.

Human B7-1 mRNA = Human B7-1 mRNA expression in COS-7 cells, screened as in Example 4; type: cell-based
[1] = COS-7 cells, B7-2 mRNA, oligonucleotide dose 10 nM
[2] = COS-7 cells, B7-2 mRNA, oligonucleotide dose 10 nM, basal = 100%
[3] = COS-7 cells, B7-2 mRNA, oligonucleotide dose 30 nM
[4] = COS-7 cells, B7-2 mRNA, oligonucleotide dose 30 nM, basal = 100%
[5] = COS-7 cells, B7-2 mRNA, oligonucleotide dose 100 nM
[6] = COS-7 cells, B7-2 mRNA, oligonucleotide dose 100 nM, basal = 100%
[7] = COS-7 cells, B7-2 mRNA, oligonucleotide dose 300 nM
[8] = COS-7 cells, B7-2 mRNA, oligonucleotide dose 300 nM, basal = 100%

Substance	% mRNA INHIBITION (hB7-2 mRNA; [1])	% mRNA EXPRESSION (hB7-2 mRNA; [2])	% mRNA INHIBITION (hB7-2 mRNA; [3])	% mRNA EXPRESSION (hB7-2 mRNA; [4])	% mRNA INHIBITION (hB7-2 mRNA; [5])	% mRNA EXPRESSION (hB7-2 mRNA; [6])	% mRNA INHIBITION (hB7-2 mRNA; [7])	% mRNA EXPRESSION (hB7-2 mRNA; [8])	% mRNA EXPRESSION (hB7-2 mRNA; human B7-2 mRNA, Table 12)	% Surface Inhibition (human B7-2; dose 10 nM)	% Surface Expression (human B7-2; dose 10 nM)	% Surface Inhibition (human B7-2; dose 30 nM)	% Surface Expression (human B7-2; dose 30 nM)	% Surface Inhibition (human B7-2; dose 100 nM)	% Surface Expression (human B7-2; dose 100 nM)	% Surface Inhibition (human B7-2; dose 300 nM)	% Surface Expression (human B7-2; dose 300 nM)	% B7-2 EXPRESSION (human B7-2)	% B7-1 EXPRESSION (human B7-1)	% mRNA EXPRESSION (Human B7-1 mRNA; human B7-1 mRNA, Table 7)	other results
22284 (eT*eG*e[5mC]*eG*eA*dG*d[5mC]*dT*d[5mC]*d[5mC]*d[5mC]*d[5mC]*dG*dT*dA*e[5mC]*e[5mC]*eT*e[5mC]*e[5mC]; antisense) [compound 22284]	8%	92%	28%	72%	41%	59%	52%	48%	30%	37%	63%	40%	60%	63%	37%	85%	15%	32%	88%		
22287 (eA*eG*eA*eA*eT*dG*dT*dT*dA*d[5mC]*dT*d[5mC]*dA*dG*dT*e[5mC]*e[5mC]*e[5mC]*eA*eT; antisense) [compound 22287]	7%	93%	21%	79%	34%	66%	55%	45%	27%	7%	93%	40%	60%	68%	32%	85%	15%	35%	92%		
22294 (eG*eG*eT*e[5mC]*e[5mC]*dA*dA*d[5mC]*dT*dG*dT*d[5mC]*d[5mC]*dG*dA*eA*eT*e[5mC]*eA*eA; antisense) [compound 22294]	7%	93%	5%	95%	42%	58%	55%	45%	21%	11%	89%	38%	62%	71%	29%	88%	12%	28%	77%		
22316 (eG*e[5mC]*eT*e[5mC]*eA*d[5mC]*dG*dT*dA*dG*dA*dA*dG*dA*d[5mC]*e[5mC]*e[5mC]*eT*e[5mC]*e[5mC]; antisense) [compound 22316]																		100%	31%	42%	% mRNA EXPRESSION (Human B7-1 mRNA; 10 nM, COS-7, Table 8): 99%; % mRNA INHIBITION (Human B7-1 mRNA; 10 nM, COS-7, Table 8): 1%; % mRNA EXPRESSION (Human B7-1 mRNA; 30 nM, COS-7, Table 8): 73%; % mRNA INHIBITION (Human B7-1 mRNA; 30 nM, COS-7, Table 8): 27%; % mRNA EXPRESSION (Human B7-1 mRNA; 100 nM, COS-7, Table 8): 58%; % mRNA INHIBITION (Human B7-1 mRNA; 100 nM, COS-7, Table 8): 42%; % mRNA EXPRESSION (Human B7-1 mRNA; 300 nM, COS-7, Table 8): 33%; % mRNA INHIBITION (Human B7-1 mRNA; 300 nM, COS-7, Table 8): 67%; % Surface Inhibition (human B7-1; dose 10 nM): 26%; % Surface Expression (human B7-1; dose 10 nM): 74%; % Surface Inhibition (human B7-1; dose 30 nM): 26%; % Surface Expression (human B7-1; dose 30 nM): 74%; % Surface Inhibition (human B7-1; dose 100 nM): 53%; % Surface Expression (human B7-1; dose 100 nM): 47%; % Surface Inhibition (human B7-1; dose 300 nM): 66%; % Surface Expression (human B7-1; dose 300 nM): 34%
22317 (eT*e[5mC]*e[5mC]*e[5mC]*eA*dG*dG*dT*dG*d[5mC]*dA*dA*dA*dA*d[5mC]*eA*eG*eG*e[5mC]*eA; antisense) [compound 22317]																		91%	28%	43%	
22320 (eT*eT*eG*eA*eG*dG*dT*dA*dT*dG*dG*dA*d[5mC]*dA*d[5mC]*eT*eT*eG*eG*eA; antisense) [compound 22320]																		86%	37%	45%	
